Several values for one entry are separate records, joined by “and”; a condition that tells them apart may be missing. Identical values can stand only once. Like-named read-outs stand apart in the source and are kept apart here.
Assays:
[1] = system: LC3 puncta in U2OS cells; test: Endogenous LC3 puncta immunofluorescence in U2OS cells; format: cell-based, human; details: for Enlarged/stalled LC3 puncta (autophagosomes) phenotype: 2 µM MRT68921, 5 µM others, 60 min pre-treatment then 120 min EBSS; for Effect on EBSS-induced increase in LC3 puncta formation: 5 µM
Procedure: (§1) U2OS (human osteosarcoma-derived) cells were cultured in DMEM supplemented with 10% foetal bovine serum, 100 U/ml Penicillin and […] L-glutamine. Cells were pre-treated with compounds at the indicated concentrations for 60 min followed by treatments with EBSS or EBSS combined with/without 50 nM Bafilomycin A1 (Enzo Life Sciences) for a further 60 or 120 min with/without inhibitors, as indicated in figures/figure legends.
(§2) Prior to immunofluorescence, cells were grown on glass coverslips to ∼60% confluency. Cells were washed in PBS prior to fixation with 3.7% PFA/10 mM HEPES pH 7.0 at room temperature for 20 min. PFA was quenched using DMEM/10 mM HEPES pH 7.0/0.02% NaN3, followed by permeabilisation with 0.2% NP-40 in PBS for 5 min, followed by blocking with 1% BSA/PBS/0.02% NaN3. Primary antibody incubation was at room temperature for 60 min, followed by two 10-minute washes, then fluorescent secondary antibody incubation for 30 min and further washes (all in blocking buffer) before mounting onto glass slides. A wide field Nikon TS microscope was used for image capturing.
(§3) Quantification of western blots was performed with band densitometry analysis using ImageJ. Quantification of LC3 puncta was performed using either the ITCN plugging in ImageJ or Volocity. One-way or two-way Anova (using GraphPad Prism) followed by a post-hoc test, was used for statistical analysis of western blots and immunofluorescence as indicated in figure legends.

[2] = system: ULK1 (pS318 ATG13); test: Cellular ULK1 kinase activity: pS318 ATG13 western blot in U2OS cells; format: cell-based, human; details: for Cellular ULK1 inhibition compared with GW837331X and GW406108X: 2 µM MRT68921, 5 µM SBI0206965, 120 min EBSS, U2OS western blot (Supplementary Figure S6C); for Effect on starvation-induced increase in pS318 ATG13: 5 µM, 60 min pre-treatment then 60 min EBSS, U2OS
Procedure: as §1
(§4) Lysates were then spun at 20 000×g for 10 min and the supernatant was collected for protein content estimation using Protein Assay Dye Reagent Concentrate from Bio-Rad. 4× LDS was added to the lysate (final dilution 1×) prior to heating at 95°C for 5 min. Electrophoresis and transfer to PVDF membranes was performed using standard protocols. Membranes were blocked in 5% milk in TBS-T prior to incubation with primary antibodies (in 5% milk/TBS-T for ULK1, pS555 (human S556) ULK1, pS757 (human S758) ULK1, pS318-ATG13, ATG13, and in 5% BSA/TBS-T for LC3 and α-Tubulin) under rotation overnight at 4°C followed by washes in TBS-T and incubation with HRP-conjugated secondary antibodies (in 5% milk in TBS-T) for 60 min at room temperature. Membranes were washed in TBS-T before application of ECL reagent (GE healthcare) and development on hypersensitive X-ray films (GE healthcare) (Figures 5A, 6C and Supplementary Figure S7C) or using BIO-RAD Clarity^TM western blotting substrate (Supplementary Figure S6C and Supplementary Figure S7A) and a BIO-RAD ChemiDoc^TM imaging system.
as §3

[3] = system: AMPK (ULK1 pS556); test: Upstream AMPK activity: ULK1 pS556 western blot in U2OS cells; format: cell-based, human; details: for Effect on AMPK activity (pS556 ULK1): 100 nM (VPS34-IN1 500 nM), 60 min pre-treatment, ± EBSS 60 min
Procedure: as §1, §4, §3

[4] = system: LC3 flux in U2OS cells; test: Autophagic flux: LC3-II western blot with/without BafA1 in U2OS cells; format: cell-based, human; details: for Effect on starvation-induced LC3 flux: 5 µM, 60 min pre-treatment then 60 min EBSS ± 50 nM BafA1, U2OS
Procedure: as §1
as §4, with “Prior to western blot analysis, cells were washed twice in ice-cold PBS and lysed in buffer containing 50 mM HEPES pH 7.4, 150 mM NaCl, 1 mM EDTA, 10% Glycerol, 0.5% NP-40, 1 mM DTT, supplemented with phosphatase inhibitors (1.15 mM sodium molybdate, 4 mM sodium tartrate, 0.01 M β-glycerophosphate, 1 mM sodium fluoride, 1 mM sodium orthovanadate) and protease inhibitor tablets (Roche) according to manufacturer's instructions. Lysates” for “Lysates”
as §3

[5] = target: T1, ULK1 (Homo sapiens, UniProt O75385); test: ULK1 ADP Hunter Plus kinase activity assay; format: biochemical
T1 construct: purchased MRC PPU Reagents and Services, Dundee, Scotland
T1 sequence (O75385 1-1050): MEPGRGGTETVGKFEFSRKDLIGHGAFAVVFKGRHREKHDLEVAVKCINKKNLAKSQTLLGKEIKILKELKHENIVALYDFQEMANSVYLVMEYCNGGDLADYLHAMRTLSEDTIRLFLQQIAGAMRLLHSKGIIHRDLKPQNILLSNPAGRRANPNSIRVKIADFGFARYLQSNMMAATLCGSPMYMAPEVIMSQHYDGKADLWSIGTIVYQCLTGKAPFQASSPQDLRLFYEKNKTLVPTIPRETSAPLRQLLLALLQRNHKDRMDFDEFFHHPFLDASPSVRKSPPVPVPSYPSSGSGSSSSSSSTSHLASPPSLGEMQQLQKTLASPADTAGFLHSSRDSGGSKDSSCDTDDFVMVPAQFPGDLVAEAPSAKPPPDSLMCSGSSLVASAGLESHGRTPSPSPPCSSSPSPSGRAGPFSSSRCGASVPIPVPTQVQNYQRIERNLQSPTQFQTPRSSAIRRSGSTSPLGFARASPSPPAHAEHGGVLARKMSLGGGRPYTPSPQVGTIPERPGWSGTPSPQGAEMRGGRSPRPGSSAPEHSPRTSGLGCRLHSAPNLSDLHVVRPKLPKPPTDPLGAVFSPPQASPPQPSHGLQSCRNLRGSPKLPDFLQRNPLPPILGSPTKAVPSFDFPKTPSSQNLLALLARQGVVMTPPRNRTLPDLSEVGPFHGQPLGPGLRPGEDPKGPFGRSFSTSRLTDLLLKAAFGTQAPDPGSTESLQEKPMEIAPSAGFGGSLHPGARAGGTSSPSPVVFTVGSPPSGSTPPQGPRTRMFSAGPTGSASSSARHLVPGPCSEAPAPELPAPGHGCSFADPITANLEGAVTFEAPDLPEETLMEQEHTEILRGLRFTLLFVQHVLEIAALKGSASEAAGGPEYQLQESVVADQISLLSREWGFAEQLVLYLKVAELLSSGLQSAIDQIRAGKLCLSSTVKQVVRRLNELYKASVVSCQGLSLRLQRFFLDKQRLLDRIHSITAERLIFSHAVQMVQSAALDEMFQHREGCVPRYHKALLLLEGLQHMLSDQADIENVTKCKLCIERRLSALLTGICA

[6] = target: VPS34 (Homo sapiens, UniProt Q8NEB9); test: VPS34 ADP Hunter Plus kinase activity assay; details: for Mechanism of inhibition of VPS34 with respect to ATP: varying ATP below 200 µM, Michaelis–Menten and Lineweaver–Burk plots; for Mechanism of inhibition of VPS34 with respect to PI:PS: varying PI:PS below 12 µM
VPS34, sequence (Q8NEB9 whole entry): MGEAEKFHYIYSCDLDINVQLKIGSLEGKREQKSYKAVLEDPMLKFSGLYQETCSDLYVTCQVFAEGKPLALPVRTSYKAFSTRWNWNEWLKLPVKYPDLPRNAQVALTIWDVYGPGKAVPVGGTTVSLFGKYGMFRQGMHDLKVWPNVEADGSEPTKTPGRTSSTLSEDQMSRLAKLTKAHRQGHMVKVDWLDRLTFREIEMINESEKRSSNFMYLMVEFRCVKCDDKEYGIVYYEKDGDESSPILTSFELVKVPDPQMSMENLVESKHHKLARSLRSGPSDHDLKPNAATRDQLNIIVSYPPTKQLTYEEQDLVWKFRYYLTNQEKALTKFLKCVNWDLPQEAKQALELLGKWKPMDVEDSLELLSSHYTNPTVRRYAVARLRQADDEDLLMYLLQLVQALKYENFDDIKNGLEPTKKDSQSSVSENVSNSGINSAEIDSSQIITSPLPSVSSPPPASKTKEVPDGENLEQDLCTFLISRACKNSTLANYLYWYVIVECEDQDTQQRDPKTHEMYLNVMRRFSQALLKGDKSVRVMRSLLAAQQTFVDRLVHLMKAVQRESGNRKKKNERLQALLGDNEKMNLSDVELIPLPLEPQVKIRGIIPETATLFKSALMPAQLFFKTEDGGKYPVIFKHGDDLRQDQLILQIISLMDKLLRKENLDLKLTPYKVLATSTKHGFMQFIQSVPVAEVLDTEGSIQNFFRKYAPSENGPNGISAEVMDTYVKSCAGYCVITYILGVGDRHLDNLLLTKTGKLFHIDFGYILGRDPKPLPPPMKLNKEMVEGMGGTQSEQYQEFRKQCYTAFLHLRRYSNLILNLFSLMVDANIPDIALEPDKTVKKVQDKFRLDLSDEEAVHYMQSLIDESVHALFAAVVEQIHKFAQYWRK

[7] = system: VPS34 (WIPI2 puncta); test: Cellular VPS34 activity: WIPI2 puncta immunofluorescence in U2OS cells; format: cell-based, human
Procedure: as §1, §2, §3

[8] = target: AMPK α1β2ɣ1 (Homo sapiens, UniProt O43741+P54619+Q13131); test: AMPK ADP Hunter Plus kinase activity assay
AMPK α1β2ɣ1, sequence (Q13131 whole entry): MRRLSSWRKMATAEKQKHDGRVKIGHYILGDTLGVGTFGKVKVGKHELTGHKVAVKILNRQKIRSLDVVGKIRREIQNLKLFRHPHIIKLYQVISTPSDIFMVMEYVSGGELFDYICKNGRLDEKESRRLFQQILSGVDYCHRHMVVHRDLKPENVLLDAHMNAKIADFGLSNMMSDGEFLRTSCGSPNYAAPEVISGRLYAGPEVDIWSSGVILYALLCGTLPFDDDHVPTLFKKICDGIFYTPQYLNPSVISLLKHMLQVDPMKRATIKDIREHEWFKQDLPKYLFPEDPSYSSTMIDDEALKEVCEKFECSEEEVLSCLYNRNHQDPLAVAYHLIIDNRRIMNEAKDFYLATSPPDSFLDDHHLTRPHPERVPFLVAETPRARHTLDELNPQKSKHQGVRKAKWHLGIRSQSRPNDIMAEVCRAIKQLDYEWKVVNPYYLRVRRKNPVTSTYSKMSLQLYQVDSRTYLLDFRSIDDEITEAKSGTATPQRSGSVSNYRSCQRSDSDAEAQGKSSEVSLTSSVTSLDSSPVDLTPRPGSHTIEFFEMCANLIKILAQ
AMPK α1β2ɣ1, sequence (O43741 whole entry partner): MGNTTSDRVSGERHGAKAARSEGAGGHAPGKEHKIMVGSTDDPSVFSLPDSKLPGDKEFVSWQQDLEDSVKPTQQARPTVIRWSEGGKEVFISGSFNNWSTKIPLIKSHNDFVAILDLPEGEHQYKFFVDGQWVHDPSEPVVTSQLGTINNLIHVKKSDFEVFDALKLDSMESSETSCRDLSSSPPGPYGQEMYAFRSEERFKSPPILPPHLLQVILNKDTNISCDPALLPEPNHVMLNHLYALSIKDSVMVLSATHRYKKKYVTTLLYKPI
AMPK α1β2ɣ1, sequence (P54619 whole entry partner): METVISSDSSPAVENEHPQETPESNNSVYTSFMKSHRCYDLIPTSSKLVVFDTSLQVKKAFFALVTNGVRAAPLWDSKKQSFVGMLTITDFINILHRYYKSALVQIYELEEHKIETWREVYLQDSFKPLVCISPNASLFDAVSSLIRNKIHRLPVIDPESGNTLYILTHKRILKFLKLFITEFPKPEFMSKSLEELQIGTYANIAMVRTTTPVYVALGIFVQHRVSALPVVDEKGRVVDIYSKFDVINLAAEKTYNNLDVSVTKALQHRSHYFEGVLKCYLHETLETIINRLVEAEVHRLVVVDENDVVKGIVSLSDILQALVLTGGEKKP

[9] = system: mTOR (ULK1 pS758); test: Upstream mTOR activity: ULK1 pS758 western blot in U2OS cells; format: cell-based, human; details: for Effect on mTORC1 activity (pS758 ULK1): 100 nM (VPS34-IN1 500 nM), 60 min pre-treatment, ± EBSS 60 min
Procedure: as §1, §4, §3

[10] = system: kinases (human kinome panel); design: method as in ChEMBL database; details: value = the kinase inhibited over 50%; ref ChEMBL database; cited from earlier work
[11] = resynthesized samples, mean potency in parenthesis, n = 5, read-out: IC50 against ULK1 (converted)
[12] = IC50 against VPS34, resynthesized samples, mean potency in parenthesis, n = 5
[13] = pIC50 against VPS34, original PKIS samples, concentration-dependent retest of screen hits

CNC(=O)c1ccccc1Oc1nc(Nc2cc(OC)c(OC)c(OC)c2)ncc1Br [SBI0206965, reference compound]
Enlarged/stalled LC3 puncta (autophagosomes) phenotype [1]: larger than those formed with EBSS alone
Cellular ULK1 inhibition compared with GW837331X and GW406108X [2]: inhibited ULK1 more potently

O=C1Nc2ccc(-c3cccnc3)cc2C1=Cc1cc(Br)c(O)c(Br)c1 [GW429374A]
Effect on AMPK activity (pS556 ULK1) [3]: unaffected
Effect on LC3 flux under EBSS starvation ([4]; 100 nM, 60 min pre-treatment then 60 min EBSS, U2OS): significantly reduced LC3 flux
IC50 [5, 11]: 8.71 µM
IC50 [6, 12]: 0.0905 µM and 0.091 µM
IC50 [6, 13]: < 1 µM
Mechanism of inhibition of VPS34 with respect to ATP [6]: primarily ATP competitive inhibition
Mechanism of inhibition of VPS34 with respect to PI:PS [6]: clear non-competitive inhibition
Effect on EBSS-induced WIPI2 puncta ([7]; 100 nM, 60 min pre-treatment then 60 min EBSS, vs EBSS only): significantly reduced
Concentration working in cells (WIPI2 puncta reduction) ([7]; EBSS, as low as): ≤ 100 nM
IC50 [8]: 3.16 µM
Effect on mTORC1 activity (pS758 ULK1) [9]: unaffected

O=C1Nc2ccc(C(=O)c3ccco3)cc2C1=Cc1cc(Cl)c(O)c(Cl)c1 [GW406108X]
Enlarged/stalled LC3 puncta (autophagosomes) phenotype [1]: did not show this phenotype
Effect on EBSS-induced increase in LC3 puncta formation [1]: abolished
Effect on starvation-induced LC3 flux [4]: significantly blocked
IC50 [6, 12]: 0.457 µM
Effect on starvation-induced increase in pS318 ATG13 [2]: significantly reduced

COc1cc(Nc2ncc3c(C)nc(-c4cccc(C(F)(F)F)c4)n3n2)cc(OC)c1OC [GW837331X]
Enlarged/stalled LC3 puncta (autophagosomes) phenotype [1]: did not show this phenotype
Effect on EBSS-induced increase in LC3 puncta formation [1]: abolished
Effect on AMPK activity (ULK1 pS556 levels) ([3]; 5 µM): without affecting mTOR or AMPK activity
Effect on starvation-induced LC3 flux [4]: significantly blocked
IC50 ([5]; original PKIS samples, concentration-dependent retest of screen hits, read-out: pIC50 against ULK1 (converted)): < 1 µM
IC50 [5, 11]: 0.646 µM
Mechanism of inhibition of ULK1 with respect to ATP ([5]; varying ATP below 600 µM, Michaelis–Menten and Lineweaver–Burk plots): primarily ATP competitive inhibition
Mechanism of inhibition of ULK1 with respect to MBP ([5]; varying MBP substrate): clear non-competitive inhibition
IC50 [6, 12]: > 100 µM
IC50 [8]: 2.34 µM
Effect on mTOR activity (ULK1 pS758 levels) ([9]; 5 µM): without affecting mTOR or AMPK activity
Effect on starvation-induced increase in pS318 ATG13 [2]: significantly reduced
Kinases that are inhibited over 50% (descending order) [10]: NEK9 and PLK1 and FMS and SRC and MELK and EphB2 and EphA4

O=S(=O)(c1ccc(-c2ccnc3[nH]ccc23)cc1)N1CCCC1 [GSK846226A]
IC50 [5, 11]: 0.603 µM
IC50 ([6]; IC50 against VPS34, resynthesized sample): 1.2 µM
IC50 [6, 12]: 1.2 µM
IC50 [6, 13]: < 1 µM
Mechanism of inhibition of VPS34 with respect to ATP [6]: primarily ATP competitive inhibition
Mechanism of inhibition of VPS34 with respect to PI:PS [6]: clear non-competitive inhibition
Concentration with inhibitory effect on WIPI2 puncta formation ([7]; EBSS, not at lower concentrations): 5 µM
IC50 [8]: 2.51 µM

CC(C)(O)CNc1ncc(-c2ccnc(Nc3ccnc(Cl)c3)n2)c(CC2CC2)n1 [VPS34-IN1, reference compound]
Effect on AMPK activity (pS556 ULK1) [3]: unaffected
Concentration blocking EBSS-induced autophagy (LC3) flux ([4]; U2OS, EBSS + 50 nM BafA1, as low as, greater effect at 100 nM): ≤ 10 nM
Effect on mTORC1 activity (pS758 ULK1) [9]: unaffected

CN1CCc2cc(Nc3ncc(C4CC4)c(NCCCNC(=O)C4CCC4)n3)ccc2C1 [MRT68921, reference compound]
Enlarged/stalled LC3 puncta (autophagosomes) phenotype [1]: larger than those formed with EBSS alone
Cellular ULK1 inhibition compared with GW837331X and GW406108X [2]: inhibited ULK1 more potently

CC(C)(CO)CNC(=O)c1ccc2c(c1)/C(=N/Nc1ccc(S(N)(=O)=O)cc1)C(=O)N2 [GW301784X]
Effect on starvation-induced LC3 flux [4]: did not block LC3 flux
IC50 ([6]; pIC50 against VPS34, resynthesized samples, 50 µM ATP (KM app), mean ± SD, n = 5): 26.3 µM
IC50 [8]: 0.347 µM
Effect on starvation-induced increase in pS318 ATG13 [2]: did not have a significant effect

Source: publication PMC7054748, “The identification and characterisation of autophagy inhibitors from the published kinase inhibitor sets” (Biochemical Journal, 2020)
